The test system of experiment [1] is HL60 cell. The experiment can be described thus: Quantification of morphological change (area change amount, peripheral length change amount) from phase difference moving images. In kind it is cell-based. An excerpt:
An image (moving image) of an HL60 cell that had been differentiated and stimulated by adding 1% DMSO and performing culture for one week was imaged over time with a phase difference microscope under conditions that magnification of an objective lens was 60 times, an imaging interval was 27 frames/second, and imaging time was 60 seconds. FIG. 5 is an image illustrating cell boundary recognition and tracking according to Example 1. […] Thereafter, the cell boundary was tracked by matching the drawn solid line to a next image. Then, a cell area in the continuous image was tracked by repeating matching to the continuous image.
Thereafter, the area and the peripheral length were calculated from the tracked cell area, and an average of the areas, an average of the peripheral lengths, and change amounts thereof in the continuous image were calculated. Then, the change amount with respect to the average of the areas or peripheral lengths was calculated as the morphological change amount (area change amount and peripheral length change amount). This was used as Control. By a similar method, as for a case where 100 μM of a mitochondrial […] agent, carbonyl cyanide m-chlorophenylhydrazone (also simply referred to as “CCCP” here), which is a drug that inhibits intracellular metabolism, was added, the morphological change amount was calculated similarly. The upper drawing of FIG. 6 is a drawing-substituting graph illustrating an area change amount and a peripheral length change amount according to Example 1, and the lower drawing of FIG. 6 is an image illustrating cell boundary recognition and tracking in Control and in a case where CCCP is added according to Example 1.

Experiment [2] deals with HL60 cell. The experiment can be described thus: Motion amount of the intracellular structure (motion vector analysis) from moving images. In kind it is cell-based. Particulars: concentrations of 0.01 μM, 0.1 μM, 1 μM, and 10 μM, FIG. 7. From the text: More specifically, the analysis unit 121 extracts a motion vector between at least two imaged images having different imaging times. For example, the analysis unit 121 can extract a motion vector from a range designated by a user using a […], a gradient method, or the like. Note that the analysis unit 121 may extract a motion vector from the entire imaged image.
The length of a motion vector is a motion amount. The analysis unit 121 can calculate a motion amount (motion speed) of an intracellular structure per unit time from an interval (time) of the two imaged images from which the motion vector has been extracted. Note that in the present technology, the motion amount of the intracellular structure can be determined using an average value, a median value, a maximum value, a standard deviation, and the like of the lengths of the motion vectors.
By a similar method to Example 1 described above, the morphological change amounts (area change amounts and peripheral length change amounts) in a case where CCCP was added at concentrations of 0.01 μM, 0.1 μM, 1 μM, and 10 μM were calculated, respectively. Furthermore, a motion vector under similar conditions was calculated at an interval of about 1 μm, and a spatiotemporal average of the motion amounts (motion speeds) per unit time for each cell was calculated to create a color map. […]

Setting [3] is: 100 μM added, differentiated HL60 cell (1% DMSO, one week), vs Control, FIG. 6.
Setting [4] is: concentrations of 0.01 μM, 0.1 μM, 1 μM, and 10 μM, HL60 cell, FIG. 7.
[5] abbreviates: 200 nM added, HL60 cell, vs Control, FIG. 10.

On to `N#CC(C#N)=NNc1cccc(Cl)c1` [CCCP, carbonyl cyanide m-chlorophenylhydrazone], for which, in the experiment with HL60 cell [1] (setting [3]), the area change amount entry is recorded as “significant decrease” and the “peripheral length change amount” value is given as “significant decrease”. Also, in the experiment with HL60 cell [1] (setting [4]), the area change amount result is “concentration-dependent decrease” and the “peripheral length change amount” value is given as “concentration-dependent decrease”. Besides, the “motion amount (vector analysis) of the intracellular structure” value in the experiment on HL60 cell [2] is recorded as “concentration-dependent decrease”.

As to `C=C1[C@@H](C)[C@H]2[C@H](Cc3ccccc3)NC(=O)[C@]23[C@H](OC(C)=O)/C=C/[C@@](C)(O)C(=O)[C@@H](C)C/C=C/[C@H]3[C@@H]1O` [Cytochalasin D], in the experiment on HL60 cell [1] (setting [5]), the area change amount entry was “significant decrease” and the “peripheral length change amount” value was “significant decrease”.

Values taken from patent US20200020099A1, “INFORMATION PROCESSING DEVICE, INFORMATION PROCESSING SYSTEM, AND INFORMATION PROCESSING METHOD” (SONY CORPORATION, priority 2017, published 2020).
